Literature values as cited in article PMC10413841, “Exploration of Thiourea-Based Scaffolds for the Construction of Bacterial Ureases Inhibitors” (ACS Omega, 2023).

Tests used:
[1] = target: purified enzyme from P. mirabilis; design: method as in PMID 25699141; conditions: previously reported; read-out: Ki against purified enzyme from P. mirabilis; cited from earlier work
[2] = target: T1, native S. pasteurii CCM 2056 urease (Sporosarcina pasteurii, UniProt P41020); design: method as in PMID 25699141; conditions: previously reported; read-out: Ki against purified enzyme from S. pasteurii; cited from earlier work
T1 construct: The S. pasteurii CCM 2056 cells were used as the source of a native enzyme; endogenous in cells; host or cells: S. pasteurii CCM 2056 culture; endogenous enzyme purified in house from the sonicated cell extract by five-step chromatography

[3] = system: live cells of P. mirabilis PCM 543; design: method as in PMID 27550502; conditions: 1 mM acetohydroxamate; remaining ureolysis in P. mirabilis PCM 543; cited from earlier work

T1 sequence (P41022 whole entry): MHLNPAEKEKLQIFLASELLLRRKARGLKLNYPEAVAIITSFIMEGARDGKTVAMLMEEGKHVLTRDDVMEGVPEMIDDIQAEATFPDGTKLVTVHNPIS
T1 sequence (P41021 whole entry, further chain): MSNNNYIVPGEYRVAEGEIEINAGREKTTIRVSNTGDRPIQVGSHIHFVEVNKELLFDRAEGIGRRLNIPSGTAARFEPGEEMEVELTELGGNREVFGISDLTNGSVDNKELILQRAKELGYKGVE
T1 sequence (P41020 whole entry): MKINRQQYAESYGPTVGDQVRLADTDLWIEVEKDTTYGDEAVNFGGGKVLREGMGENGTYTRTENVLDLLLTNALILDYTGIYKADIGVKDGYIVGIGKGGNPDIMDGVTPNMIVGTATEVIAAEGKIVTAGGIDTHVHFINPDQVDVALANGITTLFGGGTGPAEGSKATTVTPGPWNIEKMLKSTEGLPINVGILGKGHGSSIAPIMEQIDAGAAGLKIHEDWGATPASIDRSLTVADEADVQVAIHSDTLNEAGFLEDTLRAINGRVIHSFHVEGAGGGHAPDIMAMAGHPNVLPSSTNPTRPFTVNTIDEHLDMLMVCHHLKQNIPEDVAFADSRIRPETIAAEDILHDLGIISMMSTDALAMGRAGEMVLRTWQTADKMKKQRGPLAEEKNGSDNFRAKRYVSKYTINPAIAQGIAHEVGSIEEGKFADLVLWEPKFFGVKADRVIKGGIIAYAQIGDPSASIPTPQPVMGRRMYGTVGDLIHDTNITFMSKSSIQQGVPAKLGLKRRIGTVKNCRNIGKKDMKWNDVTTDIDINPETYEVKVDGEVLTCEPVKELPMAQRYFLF

SMILES: CC(=O)NO [acetohydroxamate]
- Ki [1]: 5.7 ± 0.4 µM
- Ki [2]: 3.3 ± 0.4 µM
- whole-cell ureolysis reduced to [3]: 42 ± 6%
